In paper PMC11542830, “3-nitropyridine analogues as novel microtubule-targeting agents” (PLOS ONE, 2024):

How the values were obtained:
tubulin = assay: Fluorescence-based tubulin polymerization assay; assay type: biochemical; conditions: purified tubulin, fluorescent reporter, vs DMSO control
Experimental: Tubulin polymerization in vitro was analyzed using the fluorescence-based tubulin polymerization assay (Cytoskeleton, Inc.), according to the manufacturer’s guidelines. Fluorescence was read on a SaFire II microplate reader (Tecan).

Pharmacokinetics in rats = assay type: in vivo, Sprague-Dawley rats; conditions: rat
Experimental: The pharmacokinetic profile of 4AZA2891 was investigated in male Sprague-Dawley rats after intravenous and oral administration of a dose of 2 mg/kg and 20 mg/kg, respectively. The rats were purchased from Charles River Laboratories (Belgium) and 3 rats were included in each dosing route. 4AZA2891 was formulated either as a solution at 1 mg/ml in glucose 5% with 2 equivalents of H3PO4 for the IV dosing or as a solution at 4 mg/ml in water with 2 equivalents of H3PO4 for the oral dosing. Both formulations were heated for 1 hour at 80°C in order to obtain a clear solution. Serial venous blood samples, taken by eye puncture under isoflurane inhalation anesthesia, were collected in heparinized tubes. The plasma fraction was immediately separated by centrifugation 2 min at 13,000 g and stored at -80°C until analysis. Plasma concentrations were measured using liquid chromatography/mass spectrometry/mass spectrometry (LC/MS/MS).
Every plasma and tissue sample was spiked with internal standard followed by the addition of 4 volumes of methanol. The samples were kept for 30 min on ice prior to centrifugation 10 min at 12,000 RPM in order to remove precipitated proteins. The supernatant was analyzed for the presence of 4AZA2891 using LC/MS/MS (Finnigan LCQ advantage Max (ion trap) mass spectrometer with Surveyor HPLC System (Thermo Finnigan)).
As standard for the bioanalysis, 4AZA2891 was diluted stepwise. Each dilution was added to blank control plasma or to blank control tissue homogenate additionally spiked with internal standard, giving rise to standard curves from 5 to 5,000 ng/ml. The lower limit of quantification was 5 to 10 ng/ml depending on the tissues.
Non-compartmental pharmacokinetic analysis was performed on the plasma concentration-time data. PK Solutions 2.0 software (Summit Research Services) was used to calculate the PK parameters.

HT-29 xenograft = HT-29 xenograft tumor model; assay type: in vivo; conditions: for ratio of relative tumor volume of treated mice over control mice (T/C): end of the treatment period
Experimental: Seven-week-old NMRI nude male mice were obtained from Janvier Labs (France) and injected with 10^7 HT-29 cells intradermally on the flank. When tumors reached approximately 100 mm^3, mice were distributed into three groups of four to six mice to give the same average tumor size per group and randomly assigned a treatment condition. Mice were injected IV with 4AZA2891 at 15 mg/kg following a Q1D5x2W administration schedule or at 30 mg/kg following a Q2D3x2W administration schedule or with the vehicle (Q1D5x2W). 4AZA2891 was formulated before each injection at 3 mg/ml in 5% glucose with 2 equivalent H3PO4 and warmed at 80°C for 1 h to obtain a clear solution. Tumor volume was measured as (width^2 × length)/2 in mm^3 and weight gain/loss and survival were monitored. T/C ratio was calculated as the ratio of the relative tumor volume average. The health status and behaviour of the animals were assessed daily for well-being. At the end of the experiment (day 35 after treatment intiation)) or in the events of signs of distress, cachexia or excessive tumor growth, the mice were humanely sacrificed by CO2 inhalation followed by cervical dislocation.

Myelotoxicity in mice = assay type: in vivo; conditions: Balb/c mice
Experimental: Female Balb/c mice from Janvier Labs, 8–10 weeks old, were injected IV daily for 6 days with 4AZA2891 at 15 mg/kg or with the vehicle (4 mice per treatment group). The compound was formulated at 0.75 mg/ml in glucose 5% with 2 equivalents H3PO4 as described above. Mice were daily weighted and assessed clinically. On day 7, mice were exsanguinated by retro-orbital bleeding under anesthesia with avertin (given intraperitoneally); blood was collected in EDTA tubes and was subjected to an automated blood count (Sysmex XE 2100 Hematology Analyser, Sysmex Europe GmbH). Femurs were fixed in formaldehyde, decalcified, and paraffin embedded. Sections (4.5 μm) were stained with hematoxylin/eosin (H&E) for histopathological analysis at Novaxia (France).

MALME-3M = assay: NCI60 5-dose screen, MALME-3M; assay type: cell-based; conditions: Homo sapiens, melanoma, Fig 1D, read-out: Log10 GI50 (MALME-3M) (converted)
Experimental: (§1) The screening methodology used in the NCI60 Cell 5-Doses screen is described in detail at https://dtp.cancer.gov/discovery_development/nci-60/methodology.htm. Briefly, cells are seeded in 96 well plates at an appropriate density and incubated for 1 day. After 1 day, some of the plates are processed to determine a time zero density. To the remaining plates, compounds are added over a 5-log M concentration range (1 log dilutions from 10^-4M to 10^-8M). Plates are incubated for two additional days, then fixed and stained with sulforhodamine B. Growth inhibition is calculated relative to cells without drug treatment and the time zero control. The GI50 is the concentration of a compound that causes 50% growth inhibition, relative to the no drug control.

OVCAR-4 = assay: NCI60 5-dose screen, OVCAR-4; assay type: cell-based; conditions: Homo sapiens, ovarian cancer, Fig 1D, read-out: Log10 GI50 (OVCAR-4) (converted)
Experimental: as §1

OVCAR-5 = assay: NCI60 5-dose screen, OVCAR-5; assay type: cell-based; conditions: Homo sapiens, ovarian cancer, Fig 1D, read-out: Log10 GI50 (OVCAR-5) (converted)
Experimental: as §1

NCI/ADR-RES = assay: NCI60 5-dose screen, NCI/ADR-RES; assay type: cell-based; conditions: Homo sapiens, ovarian cancer, Fig 1D, read-out: Log10 GI50 (NCI/ADR-RES) (converted)
Experimental: as §1

RXF 393 = assay: NCI60 5-dose screen, RXF 393; assay type: cell-based; conditions: Homo sapiens, renal cancer, Fig 1D, read-out: Log10 GI50 (RXF 393) (converted)
Experimental: as §1

T-47D = assay: NCI60 5-dose screen, T-47D; assay type: cell-based; conditions: Homo sapiens, T47D; breast cancer; Fig 1D; read-out: Log10 GI50 (T-47D) (converted)
Experimental: as §1

[1] = 15 mg/kg IV once daily for 6 days, blood on day 7

SMILES: Cc1cc(C)cc(Nc2ccc([N+](=O)[O-])c(NCCN3CCOCC3)n2)c1 [Compound 4AZA2891, 6-(3,5-dimethylanilino)-2-(2-morpholinoethylamino)-3-nitropyridine]
- effect on tubulin polymerization in vitro (tubulin): dose-dependently inhibits tubulin polymerization
- AUC(0-t) (Pharmacokinetics in rats; male, Sprague-Dawley, plasma, IV 2 mg/kg, read-out: AUClast in plasma): 253 ng·h/mL
- half-life (Pharmacokinetics in rats; male, Sprague-Dawley, plasma, IV 2 mg/kg, read-out: elimination half-life (converted)): 48 min
- clearance (Pharmacokinetics in rats; male, Sprague-Dawley, plasma, IV 2 mg/kg, read-out: systemic clearance (converted)): 132 mL/min/kg
- Vd (Pharmacokinetics in rats; male, Sprague-Dawley, plasma, IV 2 mg/kg, read-out: volume of distribution at steady state): 7.4 L/kg
- time detected in the plasma (Pharmacokinetics in rats; IV 2 mg/kg, lower limit of quantification 10 ng/ml): up to 3 hours
- oral bioavailability (Pharmacokinetics in rats; oral 20 mg/kg): not orally bioavailable
- plasma levels after oral dose (Pharmacokinetics in rats; oral 20 mg/kg, all time points): below the limit of quantification
- ratio of relative tumor volume of treated mice over control mice (T/C) (HT-29 xenograft; 15 mg/kg IV Q1D5x2W): 42%
- ratio of relative tumor volume of treated mice over control mice (T/C) (HT-29 xenograft; 30 mg/kg IV Q2D3x2W): 34%
- tumor growth inhibition (HT-29 xenograft; both dosing regimen (15 mg/kg Q1D5x2W, 30 mg/kg Q2D3x2W), IV): significant tumor growth inhibition
- tolerability (body weight evolution) (HT-29 xenograft; both dosing regimens, IV, tumor bearing mice): well tolerated
- Hb (Myelotoxicity in mice; [1]): 14.7 ± 2.2 g/dL
- Platelets (Myelotoxicity in mice; [1]): 234 ± 84 10^9/l
- RBC (Myelotoxicity in mice; [1]): 9.4 ± 1.6 10^12/l
- WBC (Myelotoxicity in mice; [1]): 5.2 ± 2.6 10^9/l
- histologic examination of the bone marrow (Myelotoxicity in mice; 15 mg/kg/d IV during 6 days): normal
- tolerability (body weight change, anemia, leukocytopenia, thrombocytopenia) (Myelotoxicity in mice; 15 mg/kg/d IV during 6 days): well tolerated
- GI50 (MALME-3M): 15800 nM
- GI50 (OVCAR-4): < 10 nM
- GI50 (OVCAR-5): 36.3 nM
- GI50 (NCI/ADR-RES): < 10 nM
- GI50 (RXF 393): 38.9 nM

SMILES: Cc1ccnc(Nc2ccc([N+](=O)[O-])c(NCCN3CCOCC3)n2)c1 [Compound 4AZA2996, N^6-(4-methylpyridin-2-yl)-N^2-(2-morpholinoethyl)-3-nitropyridine-2,6-diamine]
- GI50 (T-47D): 26300 nM
